Assay results from US9969742B2, “Imidazotriazinone compounds” (Ironwood Pharmaceuticals, Inc., priority 2012, dated 2018).
Where two headings read alike, the source gives them in different places.

Assays:
Type in all cases: biochemical
PDE9A2 = molecular target: T1, PDE9A2 (Homo sapiens, UniProt O76083); assay: Phosphodiesterase enzyme screening assay, PDE9A2
T1 construct: purchased Reaction Biology Corporation, Malvern, Pa
In short: (§1)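 Compounds were tested on commercial human PDE enzymes using a fluorescent cGMP substrate at 4.0 μM, incubated for one hour at room temperature. Values are means of four wells versus controls.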

PDE1A = molecular target: T2, PDE1A (Homo sapiens, UniProt P54750); assay: Phosphodiesterase enzyme screening assay, PDE1A
T2 construct: purchased Reaction Biology Corporation, Malvern, Pa
In short: as §1

PDE1B = molecular target: T3, PDE1B (Homo sapiens, UniProt Q01064); assay: Phosphodiesterase enzyme screening assay, PDE1B
T3 construct: purchased Reaction Biology Corporation, Malvern, Pa
In short: as §1

[1] = ratio of IC50 values, PDE1A versus PDE9A2, value greater than 1 indicates greater selectivity for PDE9A2
[2] = ratio of IC50 values, PDE1B versus PDE9A2, value greater than 1 indicates greater selectivity for PDE9A2
[3] = 4.0 μM cGMP substrate, 1 hour at R.T., read-out: Band (PDE9A2 IC50)
[4] = ratio of IC50 values PDE1A / PDE9A2, value greater than 1 indicates greater selectivity for PDE9A2
[5] = ratio of IC50 values PDE1B / PDE9A2, value greater than 1 indicates greater selectivity for PDE9A2
[6] = Table 1, 10 concentrations, 4.0 μM cGMP substrate, 1 hour at R.T., read-out: Band (PDE9A2 IC50)
[7] = Table 1, ratio of IC50 values, value greater than 1 indicates greater selectivity for PDE9A2
[8] = Table 3, 4.0 μM cGMP substrate, 1 hour at R.T., read-out: Band (PDE9A2 IC50)
[9] = ratio of IC50 values, PDE1A versus PDE9A2, value greater than 1 = greater selectivity for PDE9A2
[10] = ratio of IC50 values, PDE1B versus PDE9A2, value greater than 1 = greater selectivity for PDE9A2

T1 sequence (O76083 1-533 isoform O76083-2): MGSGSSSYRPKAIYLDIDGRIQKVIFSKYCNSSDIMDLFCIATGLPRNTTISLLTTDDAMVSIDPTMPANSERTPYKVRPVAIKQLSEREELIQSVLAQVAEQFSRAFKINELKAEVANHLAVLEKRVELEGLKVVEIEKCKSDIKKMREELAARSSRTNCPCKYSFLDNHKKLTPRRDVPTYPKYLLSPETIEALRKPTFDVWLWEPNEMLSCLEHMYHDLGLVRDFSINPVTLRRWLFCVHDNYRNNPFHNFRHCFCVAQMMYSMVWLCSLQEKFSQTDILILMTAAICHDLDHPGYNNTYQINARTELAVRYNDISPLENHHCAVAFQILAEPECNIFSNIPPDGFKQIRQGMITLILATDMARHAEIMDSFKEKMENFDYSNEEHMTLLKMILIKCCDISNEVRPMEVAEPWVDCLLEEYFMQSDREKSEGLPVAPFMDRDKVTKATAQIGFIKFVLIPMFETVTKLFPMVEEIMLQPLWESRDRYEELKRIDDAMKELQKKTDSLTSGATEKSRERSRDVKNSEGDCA
T3 sequence (Q01064 whole entry): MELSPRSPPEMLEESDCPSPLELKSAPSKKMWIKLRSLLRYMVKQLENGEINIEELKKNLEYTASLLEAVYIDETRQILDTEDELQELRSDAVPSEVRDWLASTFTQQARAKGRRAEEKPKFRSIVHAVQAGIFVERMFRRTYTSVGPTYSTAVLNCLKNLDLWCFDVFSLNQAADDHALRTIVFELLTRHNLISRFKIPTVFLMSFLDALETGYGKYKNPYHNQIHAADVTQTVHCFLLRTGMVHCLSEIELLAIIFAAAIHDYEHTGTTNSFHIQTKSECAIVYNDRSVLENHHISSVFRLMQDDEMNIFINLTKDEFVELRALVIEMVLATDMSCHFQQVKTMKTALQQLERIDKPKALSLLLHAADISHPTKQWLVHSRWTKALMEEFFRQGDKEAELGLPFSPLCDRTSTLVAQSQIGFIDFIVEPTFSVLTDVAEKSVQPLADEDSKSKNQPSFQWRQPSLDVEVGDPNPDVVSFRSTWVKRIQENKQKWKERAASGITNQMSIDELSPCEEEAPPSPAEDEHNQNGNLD
T2 sequence (P54750 whole entry): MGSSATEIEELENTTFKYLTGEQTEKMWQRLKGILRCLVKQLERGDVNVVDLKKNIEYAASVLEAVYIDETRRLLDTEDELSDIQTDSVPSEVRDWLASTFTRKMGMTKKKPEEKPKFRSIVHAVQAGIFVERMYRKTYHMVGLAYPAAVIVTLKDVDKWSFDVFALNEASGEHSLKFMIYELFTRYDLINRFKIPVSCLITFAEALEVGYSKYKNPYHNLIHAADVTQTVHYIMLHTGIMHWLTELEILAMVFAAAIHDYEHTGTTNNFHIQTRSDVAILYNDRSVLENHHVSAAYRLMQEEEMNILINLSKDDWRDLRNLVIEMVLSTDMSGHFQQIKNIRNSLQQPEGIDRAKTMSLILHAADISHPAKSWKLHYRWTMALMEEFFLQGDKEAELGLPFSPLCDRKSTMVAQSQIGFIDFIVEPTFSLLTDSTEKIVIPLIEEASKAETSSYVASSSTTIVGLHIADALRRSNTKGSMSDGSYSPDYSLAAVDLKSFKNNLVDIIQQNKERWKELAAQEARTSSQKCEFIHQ

| SMILES | IC50 (PDE9A2; read-out: Band (PDE9A2 IC50)) [nM] | PDE1A selectivity (versus PDE9A2) (PDE1A; [1]) | PDE1B selectivity (versus PDE9A2) (PDE1B; [2]) | IC50 (PDE9A2; [6]) [nM] | PDE1A selectivity (versus PDE9A2) (PDE1A; [7]) | PDE1B selectivity (versus PDE9A2) (PDE1B; [7]) | also measured |
| --- | --- | --- | --- | --- | --- | --- | --- |
| Cc1ccc(F)cc1-c1ncc2c(=O)[nH]c(C3CN(Cc4nc5ccccn5n4)CC3C)nn12 (single isomer, unassigned; (+)) [(+)-2-((3,4-trans)-1-([1,2,4]triazolo[1,5-a]pyridin-2-ylmethyl)-4-methylpyrrolidin-3-yl)-7-(5-fluoro-2-methylphenyl)imidazo[5,1-f][1,2,4]triazin-4(3H)-one] |  |  |  |  |  |  | IC50 (PDE9A2; IC50 band, 4.0 μM cGMP substrate, 1 hour at R.T.): < 1000 nM; PDE1A selectivity (versus PDE9A2) (PDE1A; ratio of IC50 values PDE1A vs PDE9A2, value greater than 1 indicates greater selectivity for PDE9A2): 487; PDE1B selectivity (versus PDE9A2) (PDE1B; ratio of IC50 values PDE1B vs PDE9A2, value greater than 1 indicates greater selectivity for PDE9A2): 473 |
| CCC(CC)c1ncc2c(=O)[nH]c(C3CN(Cc4nc5ccccn5n4)CC3C)nn12 (single isomer, unassigned; (+)) [(+)-2-((3,4-trans)-1-([1,2,4]triazolo[1,5-a]pyridin-2-ylmethyl)-4-methylpyrrolidin-3-yl)-7-(pentan-3-yl)imidazo[5,1-f][1,2,4]triazin-4(3H)-one] |  |  |  |  |  |  | IC50 (PDE9A2; [3]): < 1000 nM; PDE1A selectivity (versus PDE9A2) (PDE1A; [4]): 386; PDE1B selectivity (versus PDE9A2) (PDE1B; [5]): 306 |
| CC1CN(Cc2nc3ccccn3n2)CC1c1nn2c(C3CCOCC3)ncc2c(=O)[nH]1 (single isomer, unassigned; (+)) [(+)-2-((3,4-trans)-1-([1,2,4]triazolo[1,5-a]pyridin-2-ylmethyl)-4-methylpyrrolidin-3-yl)-7-(tetrahydro-2H-pyran-4-yl)imidazo[5,1-f][1,2,4]triazin-4(3H)-one] |  |  |  | < 1000 | 563 | 457 |  |
| CC1CN(Cc2ccc3nsnc3c2)CC1c1nn2c(C3CCOCC3)ncc2c(=O)[nH]1 (single isomer, unassigned; (+)) [(+)-2-((3,4-trans)-1-(benzo[c][1,2,5]thiadiazol-5-ylmethyl)-4-methylpyrrolidin-3-yl)-7-(tetrahydro-2H-pyran-4-yl)imidazo[5,1-f][1,2,4]triazin-4(3H)-one] |  |  |  |  |  |  | IC50 (PDE9A2; [8]): < 1000 nM; PDE1A selectivity (versus PDE9A2) (PDE1A; [9]): 212; PDE1B selectivity (versus PDE9A2) (PDE1B; [10]): 473 |
| CC1CN(Cc2ccoc2)CC1c1nn2c(C3CCOCC3)ncc2c(=O)[nH]1 (single isomer, unassigned; (+)) [(+)-2-((3,4-trans)-1-(furan-3-ylmethyl)-4-methylpyrrolidin-3-yl)-7-(tetrahydro-2H-pyran-4-yl)imidazo[5,1-f][1,2,4]triazin-4(3H)-one] |  |  |  |  |  |  | IC50 (PDE9A2; [8]): < 1000 nM; PDE1A selectivity (versus PDE9A2) (PDE1A; [9]): 68; PDE1B selectivity (versus PDE9A2) (PDE1B; [10]): 123 |
| Cc1cnccc1-c1ncc2c(=O)[nH]c(C3CN(Cc4cn5ccccc5n4)CC3C)nn12 (single isomer, unassigned; (+)) [(+)-2-((3,4-trans)-1-(imidazo[1,2-a]pyridin-2-ylmethyl)-4-methylpyrrolidin-3-yl)-7-(3-methylpyridin-4-yl)imidazo[5,1-f][1,2,4]triazin-4(3H)-one] |  |  |  |  |  |  | IC50 (PDE9A2; [3]): < 1000 nM; PDE1A selectivity (versus PDE9A2) (PDE1A; [4]): 155; PDE1B selectivity (versus PDE9A2) (PDE1B; [5]): 149 |
| Cc1ccncc1-c1ncc2c(=O)[nH]c(C3CN(Cc4cn5ccccc5n4)CC3C)nn12 (single isomer, unassigned; (+)) [(+)-2-((3,4-trans)-1-(imidazo[1,2-a]pyridin-2-ylmethyl)-4-methylpyrrolidin-3-yl)-7-(4-methylpyridin-3-yl)imidazo[5,1-f][1,2,4]triazin-4(3H)-one] | < 1000 | 128 | 230 |  |  |  |  |
| CCC(CC)c1ncc2c(=O)[nH]c(C3CN(Cc4cn5ccccc5n4)CC3C)nn12 (single isomer, unassigned; (+)) [(+)-2-((3,4-trans)-1-(imidazo[1,2-a]pyridin-2-ylmethyl)-4-methylpyrrolidin-3-yl)-7-(pentan-3-yl)imidazo[5,1-f][1,2,4]triazin-4(3H)-one] |  |  |  |  |  |  | IC50 (PDE9A2; [3]): < 1000 nM; PDE1A selectivity (versus PDE9A2) (PDE1A; [4]): 51; PDE1B selectivity (versus PDE9A2) (PDE1B; [5]): 48 |
| CC1CN(Cc2cn3ccccc3n2)CC1c1nn2c(C3CCOCC3)ncc2c(=O)[nH]1 (single isomer, unassigned; (+)) [(+)-2-((3,4-trans)-1-(imidazo[1,2-a]pyridin-2-ylmethyl)-4-methylpyrrolidin-3-yl)-7-(tetrahydro-2H-pyran-4-yl)imidazo[5,1-f][1,2,4]triazin-4(3H)-one] |  |  |  | < 1000 | 754 | 734 |  |
| CC1CN(Cc2ccc3cnccc3c2)CC1c1nn2c(C3CCOCC3)ncc2c(=O)[nH]1 (single isomer, unassigned; (+)) [(+)-2-((3,4-trans)-1-(isoquinolin-6-ylmethyl)-4-methylpyrrolidin-3-yl)-7-(tetrahydro-2H-pyran-4-yl)imidazo[5,1-f][1,2,4]triazin-4(3H)-one] |  |  |  | < 1000 | 145 | 335 |  |
| CC1CN(Cc2ccccc2)CC1c1nn2c(-c3ccccc3F)ncc2c(=O)[nH]1 (single isomer, unassigned; (+)) [(+)-2-((3,4-trans)-1-benzyl-4-methylpyrrolidin-3-yl)-7-(2-fluorophenyl)imidazo[5,1-f][1,2,4]triazin-4(3H)-one] |  |  |  |  |  |  | IC50 (PDE9A2; [3]): < 1000 nM; PDE1A selectivity (versus PDE9A2) (PDE1A; [4]): 76; PDE1B selectivity (versus PDE9A2) (PDE1B; [5]): 83 |
| CC1CN(Cc2ccccc2)CC1c1nn2c(-c3cccc(F)c3)ncc2c(=O)[nH]1 (single isomer, unassigned; (+)) [(+)-2-((3,4-trans)-1-benzyl-4-methylpyrrolidin-3-yl)-7-(3-fluorophenyl)imidazo[5,1-f][1,2,4]triazin-4(3H)-one] | < 1000 | 70 | 113 |  |  |  |  |
| Cc1cnccc1-c1ncc2c(=O)[nH]c(C3CN(Cc4ccccc4)CC3C)nn12 (single isomer, unassigned; (+)) [(+)-2-((3,4-trans)-1-benzyl-4-methylpyrrolidin-3-yl)-7-(3-methylpyridin-4-yl) imidazo [5,1-f] [1,2,4] triazin-4 (3H)-one] |  |  |  |  |  |  | IC50 (PDE9A2; [3]): < 1000 nM; PDE1A selectivity (versus PDE9A2) (PDE1A; [4]): 167; PDE1B selectivity (versus PDE9A2) (PDE1B; [5]): 144 |

Now from value to compound, other results behind:

| IC50 (PDE9A2; read-out: Band (PDE9A2 IC50)) [nM] | PDE1A selectivity (versus PDE9A2) (PDE1A; [1]) | PDE1B selectivity (versus PDE9A2) (PDE1B; [2]) | IC50 (PDE9A2; [6]) [nM] | PDE1A selectivity (versus PDE9A2) (PDE1A; [7]) | PDE1B selectivity (versus PDE9A2) (PDE1B; [7]) | SMILES | also measured |
| --- | --- | --- | --- | --- | --- | --- | --- |
| < 1000 | 490 | 429 |  |  |  | Cc1ccccc1-c1ncc2c(=O)[nH]c(C3CN(Cc4nc5ccccn5n4)CC3C)nn12 (single isomer, unassigned; (+)) [(+)-2-((3,4-trans)-1-([1,2,4]triazolo[1,5-a]pyridin-2-ylmethyl)-4-methylpyrrolidin-3-yl)-7-(o-tolyl)imidazo[5,1-f][1,2,4]triazin-4(3H)-one] |  |
| < 1000 | 98 | 204 |  |  |  | CC1CN(Cc2nc3ccccn3n2)CC1c1nn2c(C3CCCC3)ncc2c(=O)[nH]1 (single isomer, unassigned; (+)) [(+)-2-((3,4-trans)-1-([1,2,4]triazolo[1,5-a]pyridin-2-ylmethyl)-4-methylpyrrolidin-3-yl)-7-cyclopentylimidazo[5,1-f][1,2,4]triazin-4(3H)-one] |  |
| < 1000 | 326 | 661 |  |  |  | Cc1ccccc1-c1ncc2c(=O)[nH]c(C3CN(Cc4cn5ccccc5n4)CC3C)nn12 (single isomer, unassigned; (+)) [(+)-2-((3,4-trans)-1-(imidazo[1,2-a]pyridin-2-ylmethyl)-4-methylpyrrolidin-3-yl)-7-(o-tolyl)imidazo[5,1-f][1,2,4]triazin-4(3H)-one] |  |
|  |  |  | < 1000 | 232 | 633 | CC1CN(Cc2ccc3nccn3n2)CC1c1nn2c(C3CCOCC3)ncc2c(=O)[nH]1 (single isomer, unassigned; (+)) [(+)-2-((3,4-trans)-1-(imidazo[1,2-b]pyridazin-6-ylmethyl)-4-methylpyrrolidin-3-yl)-7-(tetrahydro-2H-pyran-4-yl)imidazo[5,1-f][1,2,4]triazin-4(3H)-one] |  |
|  |  |  | < 1000 | 223 | 893 | CC1CN(Cc2ccc3ccncc3c2)CC1c1nn2c(C3CCOCC3)ncc2c(=O)[nH]1 (single isomer, unassigned; (+)) [(+)-2-((3,4-trans)-1-(isoquinolin-7-ylmethyl)-4-methylpyrrolidin-3-yl)-7-(tetrahydro-2H-pyran-4-yl) imidazo [5,1-f] [1,2,4] triazin-4(3H)-one] |  |
|  |  |  | < 1000 | 309 | 496 | CC1CN(Cc2ccccc2)CC1c1nn2c(C3CCC(F)(F)CC3)ncc2c(=O)[nH]1 (single isomer, unassigned; (+)) [(+)-2-((3,4-trans)-1-benzyl-4-methylpyrrolidin-3-yl)-7-(4,4-difluorocyclohexyl)imidazo[5,1-f][1,2,4]triazin-4(3H)-one] |  |
| < 1000 | 174 | 143 |  |  |  | Cc1cc(F)c(F)cc1-c1ncc2c(=O)[nH]c(C3CN(Cc4ccccc4)CC3C)nn12 (single isomer, unassigned; (+)) [(+)-2-((3,4-trans)-1-benzyl-4-methylpyrrolidin-3-yl)-7-(4,5-difluoro-2-methylphenyl)imidazo[5,1-f][1,2,4]triazin-4(3H)-one] |  |
